Test results as given in patent US9879303B2, “Chromogenic glucuronidase substrates and uses” (Glycosynth Limited, priority 2013, dated 2018).
Where a name gives a salt, the structure may show the parent alone.

System: 20 different microbial strains
Experiment: specificity of action on 20 different microbial strains, Columbia agar
Type: cell-based
Settings: 19 organisms other than E. coli NCTC 10418, FAC
Procedure: The specificity of action of both DHN-β-D-glucuronide (2) and of catechol-β-D-glucuronide (1), as well as their 6′-methyl esters (4 and 6), was first established using multi-point inoculation of 20 different microbial strains onto Columbia agar plates. The strains chosen represented species commonly encountered in diagnostic microbiology. The substrates were incorporated into the agar at a concentration of 300 mg/L with an iron salt, ferric ammonium citrate, (hereinafter known as FAC) at 500 mg/L. The plates were incubated for 18 h at 37° C. in air.
Of the 20 strains, only the β-D-glucuronidase-positive strain of E. coli, (E. coli NCTC 10418) was able to hydrolyse the substrates. This organism generated diffuse, purple-brown colonies with the catechol substrates and diffuse, maroon colonies with the DHN substrates. Essentially identical results were obtained if other iron salts (e.g. iron(II) gluconate, iron(II) acetate, iron(II) citrate, iron(II) acetylacetonate and iron(III) acetylacetonate) were substituted in place of FAC. The iron compound can be either iron(II) (i.e. ferrous) or iron(III) (i.e. ferric). Both types of compound work equally, and the coloured chelates were still formed when the plates were incubated under anaerobic conditions, which is another useful feature of the present invention. The substrates may also be autoclaved at 116° C. for 20 minutes with no decrease in sensitivity. It will be appreciated that the media and the reagents will all contain at least traces of iron compounds. […] In contrast, supplementing the growth media with compounds of other metals gave either no coloured endpoint or an extremely poor one to visualise. […] Therefore the latter substrates were preferred for more extensive evaluation. […] For convenience, further evaluation of catechol-β-D-glucuronide and DHN-β-D-glucuronide was conducted with the CHA salt forms only (1 and 2b). In the present invention the counter ion of the glucuronide is not considered to be of special significance. For acidic enzyme substrates (including glucuronides), a variety of different counter ions, both inorganic and organic, are well known in the prior art.

Row | SMILES | result with the other 19 organisms
1 | O=C(O)C1OC(Oc2cc3ccccc3cc2O)C(O)C(O)C1O [Compound 2b, DHN-β-D-Glucuronide CHA Salt] | uniformly negative
2 | O=C(O)C1OC(Oc2ccccc2O)C(O)C(O)C1O [Compound 1, Catechol β-D-Glucuronide CHA Salt] | uniformly negative
